Experimental data as given in patent US20080154179A1 (priority 2005, published 2008).
≈ marks a conversion by molar mass, not a printed value. Entries after “also recorded” stand apart in the source; their conditions may differ.

Legend:
[1] = cited from earlier work; for transdermal delivery into and across human skin: literature, primaquine: simple transdermal patch, full-thickness excised human skin
[2] = relative to base line; cited from earlier work
[3] = In-vitro transdermal iontophoretic delivery of primaquine patch through epidermal membranes in Mattek permeation device
[4] = Stability of primaquine after exposure to iontophoresis by TLC of receptor compartment; conditions: receptor compartment contents, silica gel, n-butanol:acetic acid:water (5:3:2)
[5] = blood level; cited from earlier work
plasma cholinesterase = molecular target: T1, plasma cholinesterase (Homo sapiens, UniProt P06276); assay: Selective inhibition of cholinesterase activity in plasma samples treated with quinidine; format: biochemical; conditions: quinidine 20 μM, BTC vs other substrate
T1 construct: plasma samples that were treated with quinidine (20 μM); from tissue; host or cells: plasma
T1 sequence (P06276 29-602): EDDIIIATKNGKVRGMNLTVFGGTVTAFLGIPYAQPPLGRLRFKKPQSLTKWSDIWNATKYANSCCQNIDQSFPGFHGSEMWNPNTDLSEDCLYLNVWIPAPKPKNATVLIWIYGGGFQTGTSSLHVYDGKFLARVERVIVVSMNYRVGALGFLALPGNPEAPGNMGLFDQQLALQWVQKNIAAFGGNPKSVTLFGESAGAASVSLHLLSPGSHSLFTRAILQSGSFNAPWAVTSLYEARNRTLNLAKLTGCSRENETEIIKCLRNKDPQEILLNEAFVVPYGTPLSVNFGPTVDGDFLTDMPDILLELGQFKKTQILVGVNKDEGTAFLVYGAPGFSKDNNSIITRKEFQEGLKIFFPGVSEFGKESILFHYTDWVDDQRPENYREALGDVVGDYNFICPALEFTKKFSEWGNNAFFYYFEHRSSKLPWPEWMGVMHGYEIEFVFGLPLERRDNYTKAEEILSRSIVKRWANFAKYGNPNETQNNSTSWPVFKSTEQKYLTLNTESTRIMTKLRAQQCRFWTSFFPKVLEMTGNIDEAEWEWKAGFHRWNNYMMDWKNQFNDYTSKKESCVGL

SMILES: C[C@H]1c2cccc(O)c2C(=O)C2=C(O)[C@]3(O)C(=O)C(C(N)=O)=C(O)[C@@H](N(C)C)[C@@H]3[C@@H](O)[C@@H]21 [doxycycline]
- transdermal delivery into and across human skin [1]: significant amounts

SMILES: CC1CCC(C(C)C)C(O)C1 (centres unmarked) [menthol]
- increase in skin flux [2]: up to eight times the base line

SMILES: CN1CCCC1c1cccnc1 (centres unmarked) [nicotine]
- solubility (physchem): 50 mg/mL (≈ 308 mM)

SMILES: COc1cc(NC(C)CCCN)c2ncccc2c1 (centres unmarked) [primaquine]
- transdermal delivery into and across human skin [1]: could deliver a therapeutic in vivo dose
- share of the 10 mg dose delivered passively each hour ([1]; passive delivery, per hour): Approximately 5%
- amount that can be delivered transdermally ([1]; within 24 hours, to achieve therapeutic plasma concentrations): 10 mg
- passive diffusion before and after iontophoresis ([3]; human epidermal membrane, no current, receptor PBS pH 7.4): Minimal passive diffusion
- amount delivered using electrotransport ([3]; in 40 minutes): 160 µg
- stability of the primaquine molecule after exposure to iontophoresis (TLC) [4]: intact primaquine is present; also recorded: there is more than one species of molecule present
- therapeutic dosage (level) for the treatment of malaria [5]: 0.03 µg/mL

SMILES: C=C[C@H]1C[N@@]2CC[C@H]1C[C@@H]2[C@@H](O)c1ccnc2ccc(OC)cc12 [quinidine]
- inhibitory effect on plasma cholinesterase activity (plasma cholinesterase): the inhibitory effect was observed only when BTC was used
